These results are taken from publication PMC11181322, “Copper(II) Complexes with Isomeric Morpholine-Substituted 2-Formylpyridine Thiosemicarbazone Hybrids as Potential Anticancer Drugs Inhibiting Both Ribonucleotide Reductase and Tubulin Polymerization: The Morpholine Position Matters” (Journal of Medicinal Chemistry, 2024).

Assay [1] relates to MES-SA/Dx5 cells. The assay is described as follows: Intracellular ROS generation, DCF-DA assay, MES-SA/Dx5. It counts as cell-based, human. To be noted: 25 μM, 4 h treatment. The protocol: (§1) ROS accumulation was evaluated in both the MES-SA and MES-SA/Dx5 cell lines by using 2′,7′-dichlorodihydrofluorescein diacetate (H2DCF-DA) as a probe. This compound enters the cells by passive diffusion, and after oxidation, it is converted to the highly fluorescent 2′,7′-dichlorofluorescein (DCF), enabling the estimation of intracellular ROS levels. ROS generation was measured after a 4 h treatment with 25 μM H2L^6 or 6; tert-butylhydroperoxide (TBHP, 25 μM) was used as a positive control.
(§2) Figure 6 Intracellular ROS generation measured by the DCF-DA assay in MES-SA (filled bars) and MES-SA/Dx5 (lattice bars) cells, after a 4 h treatment with the indicated compounds at 25 μM: H2L^6 (gray), complex 6 (yellow), Triapine (green), and TBHP (brown). Values indicate fold change relative to the fluorescence of the cells treated with fluorescent probe alone (orange bars), following normalization to the initial fluorescence at the beginning of the incubation. Paired t test to the medium control was calculated; […]; **P < 0.01. Values were calculated from at least three independent experiments.
(§3) The human uterine sarcoma cell lines MES-SA and the doxorubicin selected MES-SA-Dx5 were obtained from ATCC (MES-SA: No. CRL-1976, MES-SA/Dx5: No. CRL-1977) and were used for the intracellular ROS generation studies. […]

Assay [2] relates to MES-SA cells. The assay is described as follows: Fluorescent protein-based cytotoxicity assay, MES-SA. Type of assay: cell-based, human. The note with it: Homo sapiens, MES-SA; 120 h; ± SD; n = 3. An excerpt:
(§4) The cytotoxic activity of proligands H2L^3–H2L^6 and their copper(II) complexes 3–6 was investigated in the MES-SA (human uterine sarcoma) and in its MDR counterpart (MES-SA/Dx5) cell lines by a fluorescent protein-based assay.[73]
(§5) The human uterine sarcoma cell lines MES-SA and the doxorubicin selected MES-SA-Dx5 were obtained from ATCC (MES-SA: No. CRL-1976, MES-SA/Dx5: No. CRL-1977) and were used for the intracellular ROS generation studies. For cytotoxicity, we used the fluorescent cell lines MES-SA mCherry and MES-SA/Dx5 eGFP, which were created by lentiviral transductions of the respective genes.[73] The phenotype of the resistant cells was maintained by 500 nM doxorubicin treatment a week before use and was verified using cytotoxicity assays. Cells were cultivated at 37 °C, 5% CO2 in Dulbecco’s modified Eagle's Medium (DMEM, Sigma-Aldrich), supplemented with 10% fetal bovine serum, 5 mM glutamine, and 50 unit/mL penicillin and streptomycin (Thermo Fisher).
(§6) MES-SA mCherry and MES-SA/Dx5 eGFP cell suspensions were seeded after trypsinization at 2500 cells/20 μL density on 384-well plates, containing 20 μL of completed medium. The next day, serial dilution of the compounds was prepared and added in an additional 20 μL, with or without 0.4 μM Tariquidar. Liquid handling steps were performed by a Hamilton StarLet robot. […] The mean and standard deviation of the pIC50 values were calculated and converted to IC50 values.

In assay [3] the test system is MES-SA cells. The assay is described as follows: Intracellular ROS generation, DCF-DA assay, MES-SA. Type of assay: cell-based, human. The note with it: 25 μM, 4 h treatment. The protocol: as §1, §2, §3
The next assay addresses T1, mR2 RNR protein (Mus musculus, UniProt P11157).
T1 construct: made in house
T1 sequence (P11157 1-390): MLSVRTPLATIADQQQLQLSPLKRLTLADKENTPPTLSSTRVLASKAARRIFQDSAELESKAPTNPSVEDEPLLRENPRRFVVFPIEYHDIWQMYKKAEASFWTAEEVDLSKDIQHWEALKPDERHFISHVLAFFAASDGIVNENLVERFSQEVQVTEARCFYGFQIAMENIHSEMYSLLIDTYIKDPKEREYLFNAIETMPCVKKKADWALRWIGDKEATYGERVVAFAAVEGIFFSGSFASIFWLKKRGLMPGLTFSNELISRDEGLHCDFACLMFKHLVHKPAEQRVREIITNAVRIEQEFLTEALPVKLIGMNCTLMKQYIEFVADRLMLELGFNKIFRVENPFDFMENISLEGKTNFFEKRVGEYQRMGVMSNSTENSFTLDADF
Further details: method as in PMID 21955844. The note with it: in 3 min ref 76; cited from earlier work.

On the set-up of assay [4]: method as in PMID 32336116. To be noted: copper(II) complexes of the named TSCs, measured under similar conditions ref 67; cited from earlier work.
Assay [5] deals with MES-SA cells. The assay is described as follows: dNTP pools in MES-SA cell extracts. It counts as cell-based, human. To be noted: 24 h. An excerpt:
RNR reduces NDPs to their corresponding deoxy derivatives (dNDPs), which are further converted into dNTPs.[77] Therefore, we investigated the effect of the most toxic proligand H2L^6 and its copper(II) complex 6 on cellular dNTP levels, using Triapine as a control. […] Triapine also elicits a dATP pool decrease while increasing the pools of the three other dNTP species. Decreasing the dATP pool to zero can give rise to the observed cytotoxic effect upon treatment with Triapine. Complex 6 seems to affect dNTP pools by a more complex mechanism, which is nevertheless consistent with R2 inhibition.[79]
Figure 8 Measurement of dNTP pools in MES-SA cell extracts following a 24 h treatment with proligand H2L^6, complex 6, or Triapine at the indicated concentrations. Three independent experiments were performed; error bars represent standard error; stars indicate significant changes compared to the respective control (Ctrl) at p < 0.05.
After a 24 h incubation with or without drugs, MES-SA cells were washed twice with PBS and trypsinized for 5 min. […] The pellet containing dNTPs was redissolved in 50 μL of RNase-free water and stored at −20 °C. dNTP-containing samples were measured by a nucleotide incorporation-based fluorescent method.[97] We used a long synthetic oligonucleotide (197 nt) as a template, which contains a dNTP-detection site, the sole complementary base to that of the dNTP to be quantified directly adjacent to the annealed primer. […] In addition to the limiting amount of dNTP to be quantified, the polymerization reaction mix contained the other three dNTPs in large excess. The double-stranded DNA product is detected by the EvaGreen Dye. The 2X master mix for the DNA synthesis reaction contained the following: 0.275 μM primer (Merck KGaA, Darmstadt, Germany), 0.25 μM template (IDT, Coralville, Iowa, USA), 50 μM dNTP mix (excluding the dNTP to be measured in the given experiment to limit its source to the sample), and 1.25 μM EvaGreen (Biotium). […] Fluorescence amplitude data were extracted from the Bio-Rad CFX Maestro Software and analyzed using Excel and Origin. […]

The test system of assay [6] is MES-SA/Dx5 cells. The assay is described as follows: Fluorescent protein-based cytotoxicity assay, MES-SA/Dx5. Type of assay: cell-based, human.
From the text: as §4, §5, §6

Usually IC50 stands for the midpoint of a concentration-inhibition curve. Regarding `NC(=S)NN=Cc1ncccc1N` [Triapine, 3-aminopyridine-2-carboxaldehyde thiosemicarbazone, reference compound], the “Intracellular ROS generation” value with MES-SA/Dx5 cells [1] and with MES-SA cells [3] was “failed to induce ROS” each time. In addition, the IC50 with MES-SA cells [2] is 520 ± 100 nM; with MES-SA/Dx5 cells [6] (Homo sapiens, MES-SA/Dx5, 120 h, ± SD, n = 3), 2800 ± 500 nM. In addition, the “mR2 Y• reduced” value at mR2 RNR protein is listed as 100%. Besides, the “kobs, reduction by GSH” value in assay [4] is reported as 0.10 min^–1. The dATP pool entry in the assay with MES-SA cells [5] is “decrease”. The “pools of the three other dNTP species” value in the assay with MES-SA cells [5] is “increasing”. In addition, in the assay on MES-SA/Dx5 cells [6] (in the absence of TQ), the “SR, selectivity ratio IC50 (MES-SA)/IC50 (MES-SA/Dx5)” value is 0.18.
